In PubChem BioAssay (NCI):
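Growth conditions: 96-well plates. Treatment: test compound, 48 hours, 5 concentrations. Analysis: linear interpolation between bracketing concentrations; unreached endpoints set to highest concentration. GI50: concentration for 50% inhibition of growth. TGI denotes the concentration required for complete inhibition of growth.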

Key:
Test in all cases: NCI-60 cell line screen, 48 h
[1] = system: PC-3 prostate
[2] = system: SK-MEL-2 melanoma
[3] = system: ACHN renal
[4] = system: TK-10 renal
[5] = system: NCI-H522 lung
[6] = system: 786-0 renal
[7] = system: SF-295 CNS
[8] = system: SN12C renal
[9] = system: SF-539 CNS
[10] = system: NCI/ADR-RES ovarian

COC(=O)/C=C1/SC(=Nc2cccc(Cl)c2)N(CCc2c[nH]c3ccc(O)cc23)C1=O
GI50 [1]: 1.74 µM
TGI [1]: 3.87 µM
GI50 [2]: 1.53 µM
TGI [2]: 3.08 µM
GI50 [3]: 1.73 µM
TGI [3]: 3.33 µM
GI50 [4]: 2.29 µM
TGI [4]: 5.65 µM
GI50 [5]: 1.63 µM
TGI [5]: 3.4 µM
GI50 [6]: 1.67 µM
TGI [6]: 3.4 µM
GI50 [7]: 1.85 µM
TGI [7]: 4.15 µM
GI50 [8]: 1.79 µM
TGI [8]: 3.67 µM
GI50 [9]: 1.63 µM
TGI [9]: 3.24 µM
GI50 [10]: 2.41 µM
TGI [10]: 6.89 µM

OC1CC2CCC(C1)N2CCCN1c2ccccc2Sc2ccc(Cl)cc21 (stereo not given)
TGI [1]: 4.8 µM
TGI [2]: 3.29 µM
TGI [3]: 7.07 µM
TGI [4]: 3.61 µM
TGI [5]: 4.19 µM
TGI [6]: 3.54 µM
TGI [7]: 3.67 µM
TGI [8]: 13.7 µM
TGI [9]: 3.89 µM
TGI [10]: 6.32 µM

CN1C(=O)CCC(N2C(=O)c3cccc(NCCOCCOCCNC(=O)c4cc5c(o4)C(=O)c4ccccc4C5=O)c3C2=O)C1=O (stereo not given)
GI50 [1]: 2.07 µM
TGI [1]: 18 µM
GI50 [2]: 2.2 µM
TGI [2]: 6.49 µM
GI50 [3]: 2.04 µM
TGI [3]: 5.17 µM
GI50 [4]: 3.5 µM
TGI [4]: 7.55 µM
GI50 [5]: 1.96 µM
TGI [5]: 5.08 µM
GI50 [6]: 2.27 µM
TGI [6]: 5.64 µM
GI50 [7]: 1.66 µM
TGI [7]: 3.08 µM
GI50 [8]: 1.41 µM
TGI [8]: 2.79 µM
GI50 [9]: 1.63 µM
TGI [9]: 3.02 µM
GI50 [10]: 6.3 µM
TGI [10]: 36.5 µM

CCSC[C@@H]1C[C@](O)(c2ccc(Cl)cc2)[C@@H](c2ccc(Cl)cc2)O1
GI50 [1]: 20 µM
TGI [1]: 39.1 µM
GI50 [2]: 16 µM
TGI [2]: 35 µM
GI50 [3]: 19.6 µM
TGI [3]: 36.6 µM
GI50 [4]: 17.8 µM
TGI [4]: 36.3 µM
GI50 [5]: 15.5 µM
TGI [5]: 31.4 µM
GI50 [6]: 17 µM
TGI [6]: 31.9 µM
GI50 [7]: 18.9 µM
TGI [7]: 35.4 µM
GI50 [8]: 17.6 µM
TGI [8]: 34.6 µM
GI50 [9]: 16.5 µM
TGI [9]: 31.1 µM
GI50 [10]: 20.5 µM
TGI [10]: 43.6 µM

COc1ccc(Nc2nc(NCCNc3ccnc4cc(Cl)ccc34)nc(N3CCOCC3)n2)cc1
GI50 [1]: 3.94 µM
TGI [1]: 19.8 µM
GI50 [2]: 2.19 µM
TGI [2]: 4.28 µM
GI50 [3]: 4.77 µM
TGI [3]: 18.1 µM
GI50 [4]: 7.64 µM
TGI [4]: 20.6 µM
GI50 [5]: 3.85 µM
TGI [5]: 11.5 µM
GI50 [6]: 2.11 µM
TGI [6]: 12.3 µM
GI50 [7]: 2.05 µM
TGI [7]: 3.92 µM
GI50 [8]: 8.73 µM
TGI [8]: 23.4 µM
GI50 [9]: 2.18 µM
TGI [9]: 7.54 µM
GI50 [10]: 6.38 µM
TGI [10]: 24.9 µM

CCCc1nn(C)c2c(=O)[nH]c(-c3cc(S(=O)(=O)N4CCN(C)CC4)ccc3OCC)nc12
GI50 [1]: > 100 µM
TGI [1]: > 100 µM
GI50 [2]: > 100 µM
TGI [2]: > 100 µM
GI50 [3]: > 100 µM
TGI [3]: > 100 µM
GI50 [4]: 94.3 µM
TGI [4]: > 100 µM
GI50 [5]: > 100 µM
TGI [5]: > 100 µM
GI50 [6]: > 100 µM
TGI [6]: > 100 µM
GI50 [7]: > 100 µM
TGI [7]: > 100 µM
GI50 [8]: > 100 µM
TGI [8]: > 100 µM
GI50 [9]: > 100 µM
TGI [9]: > 100 µM
GI50 [10]: > 100 µM
TGI [10]: > 100 µM

O=C1c2c(c(=O)[nH]c3ccccc23)[C@H](c2ccccc2)[C@@H]2CCCN12
GI50 [1]: 6.2 µM
TGI [1]: > 100 µM
GI50 [2]: 4.17 µM
TGI [2]: 46.7 µM
GI50 [3]: 2.64 µM
TGI [3]: 14.9 µM
GI50 [4]: 20.5 µM
TGI [4]: > 100 µM
GI50 [5]: 8.56 µM
TGI [5]: > 100 µM
GI50 [6]: 4.61 µM
TGI [6]: > 100 µM
GI50 [7]: 8.72 µM
TGI [7]: 47.8 µM
GI50 [8]: 3.38 µM
TGI [8]: > 100 µM
GI50 [9]: 2.6 µM
TGI [9]: 6.7 µM
GI50 [10]: 3.05 µM
TGI [10]: 36.4 µM

COc1ccc2cc(-c3cnc4nonc4n3)ccc2c1
GI50 [1]: 2.11 µM
TGI [1]: > 100 µM
GI50 [2]: 3.66 µM
TGI [2]: > 100 µM
GI50 [3]: 4.33 µM
TGI [3]: > 100 µM
GI50 [4]: 10.6 µM
TGI [4]: > 100 µM
GI50 [5]: 1.29 µM
TGI [5]: > 100 µM
GI50 [6]: 4.17 µM
TGI [6]: > 100 µM
GI50 [7]: 2.08 µM
TGI [7]: > 100 µM
GI50 [8]: 5.28 µM
TGI [8]: > 100 µM
GI50 [9]: 0.825 µM
TGI [9]: 4.88 µM
GI50 [10]: 1.32 µM
TGI [10]: > 100 µM

O=C1c2ccccc2C(=O)N1CCc1ncc(-c2ccccc2)[nH]1
TGI [1]: > 100 µM
TGI [2]: > 100 µM
TGI [3]: > 100 µM
TGI [4]: > 100 µM
TGI [5]: > 100 µM
TGI [6]: > 100 µM
TGI [7]: > 100 µM
TGI [8]: > 100 µM
TGI [9]: > 100 µM
TGI [10]: > 100 µM

CCOC(=O)C(=Cc1ccc(C#N)cc1)C(=O)OCC
GI50 [1]: 2.28 µM
TGI [1]: 4.9 µM
GI50 [2]: 1.93 µM
TGI [2]: 4.19 µM
GI50 [3]: 1.78 µM
TGI [3]: 3.46 µM
GI50 [4]: 2.28 µM
TGI [4]: 7.3 µM
GI50 [5]: 1.48 µM
TGI [5]: 3.1 µM
GI50 [6]: 1.84 µM
TGI [6]: 3.88 µM
GI50 [7]: 8.56 µM
TGI [7]: 21.2 µM
GI50 [8]: 1.81 µM
TGI [8]: 4.71 µM
GI50 [9]: 1.91 µM
TGI [9]: 4.15 µM
GI50 [10]: 3.33 µM
TGI [10]: 23.4 µM

Cc1ccc(OP(=O)(Oc2ccc(C)cc2)N2C=Cc3ccccc3C2C#N)cc1 (stereo not given)
TGI [1]: > 100 µM
TGI [2]: > 100 µM
TGI [3]: > 100 µM
TGI [4]: > 100 µM
TGI [5]: > 100 µM
TGI [6]: > 100 µM
TGI [7]: > 100 µM
TGI [8]: > 100 µM
TGI [9]: > 100 µM
TGI [10]: > 100 µM

[N-]=[N+]=NCN1C(=O)C2C3C=CC(C2C1=O)C1C2C(=O)N(CN=[N+]=[N-])C(=O)C2C31 (stereo not given)
TGI [1]: > 100 µM
TGI [2]: > 100 µM
TGI [3]: > 100 µM
TGI [4]: > 100 µM
TGI [5]: > 100 µM
TGI [6]: > 100 µM
TGI [7]: > 100 µM
TGI [8]: > 100 µM
TGI [9]: > 100 µM
TGI [10]: > 100 µM

COc1cc(CCC[P+](c2ccccc2)(c2ccccc2)c2ccccc2)c(OC)c2c1OCO2
GI50 [1]: 1.55 µM
TGI [1]: > 100 µM
GI50 [2]: 1.9 µM
TGI [2]: 10.5 µM
GI50 [3]: 4.07 µM
TGI [3]: 21 µM
GI50 [4]: 4.05 µM
TGI [4]: 23.3 µM
GI50 [5]: 1.43 µM
TGI [5]: 12.1 µM
GI50 [6]: 3.44 µM
TGI [6]: 16.5 µM
GI50 [7]: 2.37 µM
TGI [7]: 7.39 µM
GI50 [8]: 2.56 µM
TGI [8]: 10.5 µM
GI50 [9]: 2.31 µM
TGI [9]: 12.6 µM
GI50 [10]: 77.5 µM
TGI [10]: > 100 µM
